From ChEMBL document CHEMBL1148188, “Cytotoxic and antimalarial alkaloids from the bulbs of Crinum amabile” (J Nat Prod, 1993)
In brackets after ≈: the same amount, converted by molar mass.

What was measured:
[1] = Cytotoxicity against human LUC1 cells after 3 days by sulforhodamine B assay; format: functional; conditions: LUC1, 72 h, read-out: ED50 (the source's name)
[2] = Cytotoxicity against human BCA1 cells after 3 days by sulforhodamine B assay; format: functional; conditions: BCA1, 72 h, read-out: ED50 (the source's name)
[3] = Cytotoxicity against human Col1 cells after 3 days by sulforhodamine B assay; format: functional; conditions: Col1, 72 h, read-out: ED50 (the source's name)
SK-MEL-2 = assay: Cytotoxicity against human SK-MEL-2 cells after 3 days by sulforhodamine B assay; format: functional; conditions: SK-MEL-2, 72 h, read-out: ED50 (the source's name)
ZR-75-1 = assay: Cytotoxicity against human ZR-75-1 cells after 3 days by sulforhodamine B assay; format: functional; conditions: ZR-75-1, 72 h, read-out: ED50 (the source's name)
A-431 = assay: Cytotoxicity against human A431 cells after 3 days by sulforhodamine B assay; format: functional; conditions: A-431, 72 h, read-out: ED50 (the source's name)
P388 = assay: Cytotoxicity against mouse P388 cells after 3 days by sulforhodamine B assay; format: functional; conditions: P388, 72 h, read-out: ED50 (the source's name)
KB = assay: Cytotoxicity against human KB cells after 3 days by sulforhodamine B assay; format: functional; conditions: 72 h, read-out: ED50 (the source's name)
[4] = Cytotoxicity against human U373 cells after 3 days by sulforhodamine B assay; format: functional, U-373MG ATCC; conditions: U373 MG, 72 h, read-out: ED50 (the source's name)
HT-1080 = assay: Cytotoxicity against human HT1080 cells after 3 days by sulforhodamine B assay; format: functional; conditions: HT-1080, 72 h, read-out: ED50 (the source's name)
LNCaP = assay: Cytotoxicity against human LNCAP cells after 3 days by sulforhodamine B assay; format: functional; conditions: 72 h, read-out: ED50 (the source's name)
[5] = Cytotoxicity against human KBV1 cells after 3 days by sulforhodamine B assay; format: functional; conditions: KB-V1, 72 h, read-out: ED50 (the source's name)
[6] = Selectivity index, ratio of ED50 for human KB cells to ED50 for Plasmodium falciparum D6; format: toxicity, cell-based; conditions: read-out: Ratio ED50
[7] = Selectivity index, ratio of ED50 for human KB cells to ED50 for Plasmodium falciparum W2; format: toxicity, cell-based; conditions: read-out: Ratio ED50
Plasmodium falciparum [8] = assay: Antimalarial activity after 24 hrs against Plasmodium falciparum D6 infected type A+ human erythrocytes by [3H]hypoxanthine uptake; format: functional; conditions: D6, read-out: ED50
Plasmodium falciparum [9] = assay: Antimalarial activity after 24 hrs against Plasmodium falciparum W2 infected in type A+ human erythrocytes by [3H]hypoxanthine uptake; format: functional; conditions: W2, read-out: ED50

Structure (SMILES)	EC50 [1]	EC50 [2]	EC50 [3]	EC50 (SK-MEL-2)	EC50 (ZR-75-1)	EC50 (A-431)	EC50 (P388)	EC50 (KB)	EC50 [4]	EC50 (HT-1080)	EC50 (LNCaP)	EC50 [5]	selectivity ratio [6]	selectivity ratio [7]	EC50 (Plasmodium falciparum [8])	EC50 (Plasmodium falciparum [9])
O[C@@H]1CC[C@H]2N3CC[C@@]2(c2cc4c(cc2C3)OCO4)[C@@H]1O	> 20 µg/mL	> 20 µg/mL	> 20 µg/mL	> 20 µg/mL	> 20 µg/mL	> 20 µg/mL	> 5 µg/mL	> 20 µg/mL	> 20 µg/mL	> 20 µg/mL	> 20 µg/mL	> 20 µg/mL	–	–	–	–
CO[C@H]1C=C[C@@]23c4cc5c(cc4CN(C[C@@H]2O)[C@H]3C1)OCO5	1.4 µg/mL (≈ 4.65 µM)	1.4 µg/mL (≈ 4.65 µM)	1 µg/mL (≈ 3.32 µM)	5 µg/mL (≈ 16.6 µM)	0.8 µg/mL (≈ 2.65 µM)	6.9 µg/mL (≈ 22.9 µM)	0.7 µg/mL (≈ 2.32 µM)	1 µg/mL (≈ 3.32 µM)	0.9 µg/mL (≈ 2.99 µM)	1.3 µg/mL (≈ 4.31 µM)	1.5 µg/mL (≈ 4.98 µM)	0.6 µg/mL (≈ 1.99 µM)	0.4	0.4	–	–
OC(c1cc(C(F)(F)F)nc2c(C(F)(F)F)cccc12)C1CCCCN1 (stereo not drawn) [MEFLOQUINE]	–	–	–	–	–	–	–	–	–	–	–	–	480	2190	0.0073 µg/mL (≈ 0.0193 µM)	0.0016 µg/mL (≈ 0.00423 µM)
C=C[C@H]1CN2CC[C@H]1C[C@H]2[C@H](O)c1ccnc2ccc(OC)cc12 [QUININE]	–	–	–	–	–	–	–	–	–	–	–	–	> 2130	> 820	0.0094 µg/mL (≈ 0.029 µM)	0.0245 µg/mL (≈ 0.0755 µM)
CCN(CC)CCCC(C)Nc1ccnc2cc(Cl)ccc12 (stereo not drawn) [CHLOROQUINE]	–	–	–	–	–	–	–	–	–	–	–	–	–	–	0.0013 µg/mL (≈ 0.00406 µM)	0.0112 µg/mL (≈ 0.035 µM)
COC1C=C[C@@]23CCN(Cc4cc5c(cc42)OCO5)[C@@H]3C1 (stereo partly drawn)	> 20 µg/mL	> 20 µg/mL	> 20 µg/mL	> 20 µg/mL	> 20 µg/mL	> 20 µg/mL	> 5 µg/mL	> 20 µg/mL	> 20 µg/mL	> 20 µg/mL	> 20 µg/mL	19.8 µg/mL (≈ 69.4 µM)	–	–	–	–
C[C@@H]1CC[C@H]2[C@@H](C)C(=O)O[C@@H]3O[C@@]4(C)CC[C@@H]1[C@]32OO4 [ARTEMISININ]	–	–	–	–	–	–	–	–	–	–	–	–	> 33300	> 40000	0.0006 µg/mL (≈ 0.00213 µM)	–
CO[C@@H]1C[C@H]2N3CC[C@@]2(c2cc4c(cc2C3)OCO4)[C@H]2O[C@@H]12	3.7 µg/mL (≈ 12.3 µM)	2.8 µg/mL (≈ 9.29 µM)	2.4 µg/mL (≈ 7.96 µM)	3.2 µg/mL (≈ 10.6 µM)	1.8 µg/mL (≈ 5.97 µM)	4.9 µg/mL (≈ 16.3 µM)	0.6 µg/mL (≈ 1.99 µM)	0.6 µg/mL (≈ 1.99 µM)	0.6 µg/mL (≈ 1.99 µM)	1.2 µg/mL (≈ 3.98 µM)	1.7 µg/mL (≈ 5.64 µM)	> 20 µg/mL	4	3	0.14 µg/mL (≈ 0.465 µM)	0.18 µg/mL (≈ 0.597 µM)
O[C@H]1[C@H]2c3cc4c(cc3CN3CCC(=C[C@@H]1O)[C@H]23)OCO4 [LYCORINE]	0.9 µg/mL (≈ 3.13 µM)	1.6 µg/mL (≈ 5.57 µM)	0.8 µg/mL (≈ 2.78 µM)	1.6 µg/mL (≈ 5.57 µM)	0.9 µg/mL (≈ 3.13 µM)	1.3 µg/mL (≈ 4.52 µM)	0.9 µg/mL (≈ 3.13 µM)	0.3 µg/mL (≈ 1.04 µM)	0.3 µg/mL (≈ 1.04 µM)	0.5 µg/mL (≈ 1.74 µM)	0.5 µg/mL (≈ 1.74 µM)	0.4 µg/mL (≈ 1.39 µM)	1	1	0.32 µg/mL (≈ 1.11 µM)	0.3 µg/mL (≈ 1.04 µM)
